The source of these data is US20130022645A1, “PHARMACEUTICAL FORMULATIONS OF BISPHOSPHONATE WITH ENHANCED ORAL BIOAVAILABILITY” (DONG-A PHARM. CO., LTD., priority 2011, published 2013).

“Also recorded” adds a separate entry of the source.

A short description of series [1]: In vitro inhibitory activity of phytic acid and EDTA against complexation of bisphosphonate with calcium (residual risedronate in solution by HPLC). The class given is physicochemical. Particulars: for Inhibition of calcium-risedronate complexation: Tables 2 to 4, FIGS. 1 to 3. Here is the method: Herein, in vitro tests in which after bisphosphonate and a chelating agent were simultaneously added to a solution containing a predetermined amount of calcium ions, correlation between time and residual bisphosphonate in the solution was determined were performed as explained in the following Reference Examples.
Various 50 mL solutions containing 50 mg, 10 mg and 5 mg of calcium in combination with 50 mg and 100 mg of EDTA, or […] as a chelating agent were prepared and used respectively in Reference Examples 1 to 15.
The mechanism in which a chelating agent facilitates the absorption of bisphosphonate can be explained as the degree to which the chelating inhibits bisphosphonate's activity of reacting with minerals (calcium, magnesium, etc.) in the gastrointestinal tract to form insoluble complexes. Thus, in vitro tests for assaying the inhibitory activity of phytic acid or EDTA against the complexation of bisphosphonate in calcium-containing solutions were conducted in Reference Test Example 1.
In a container with a cap, 25 mL of each of the solutions prepared in Reference Example 1 to 15 was placed, followed by agitation at 100 rpm for 120 min in an agitation bath maintained at 37° C. Approximately 1 mL of each of the solutions was taken at time points (immediately after preparation, and 15, 30, 60, 90 and 120 min after agitation) and allowed to pass through 0.45 μm PVDF membrane filters to remove precipitates. Residual resedronate in the solutions was quantitatively analyzed by HPLC.

Another series concerns intestinal mucosa. The conditions noted are these: rabbits; cited from earlier work.

Take `O=C(O)CN(CCN(CC(=O)O)CC(=O)O)CC(=O)O` [EDTA]: in series [1], the “Inhibition of calcium-risedronate complexation” value was “inhibit calcium-risedronate complexation in a dose-dependent manner”. Also, the “Effect on intestinal mucosa” value in the series on intestinal mucosa was “irritate the intestinal mucosa”.

Consider `O=P(O)(O)O[C@H]1[C@H](OP(=O)(O)O)[C@@H](OP(=O)(O)O)[C@H](OP(=O)(O)O)[C@@H](OP(=O)(O)O)[C@H]1OP(=O)(O)O` [phytic acid, inositol hexakisphosphate], for which the “Inhibition of calcium-risedronate complexation” value in series [1] is listed as “inhibit calcium-risedronate complexation in a dose-dependent manner”. For the same compound, in series [1] (in vitro tests), the “Inhibitory activity against complexation compared with EDTA” value was “poorer in inhibitory activity against complexation than was EDTA”. Also, the “Amount of phytic acid relative to EDTA needed for the same inhibition of calcium-risedronate complexation” value in series [1] (in vitro, Reference Examples 6 to 10) is recorded as “at least twice the amount of EDTA; also recorded: twice as large as that of EDTA”.
